Assay results reported in ChEMBL document CHEMBL1201862, “PubChem BioAssay data set” (2004).
The source made the active and inactive calls.

Key:
[1] = inhibitors of intracellular T. cruzi replication, confirmation, NIH3T3 host cells, beta-gal luminescence (AID 2044); format: functional, cell-based;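 also: intracellular parasites grown in NIH/3T3 mouse fibroblasts as host cells; luminescent beta-galactosidase reporter signal from transgenic T. cruzi replicating inside host cells; inhibitors lower the luminescence signal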
[2] = cytotoxicity toward NIH3T3 fibroblasts, dose response, counter-screen, cell-based, ATP luminescence, mouse fibroblasts (AID 2010); format: functional;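 also: cells exposed to compound for about 90 hours before reading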
[3] = biological target: Ras and Rab interactor 1/Tyrosine-protein kinase ABL1 (Homo sapiens, UniProt P00519+Q13671); format: functional;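 also: biochemical TR-FRET dose-response test measuring inhibition of binding between Rin1 and Abl proteins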
[4] = biological target: T1, DNA repair and recombination protein RAD54-like (Homo sapiens, UniProt Q92698); experiment: inhibitors of human RAD54 branch migration, confirmation, biochemical, fluorescence, cherry-picked samples, dose series (AID 651657); format: functional
T1 sequence (Q92698 whole entry): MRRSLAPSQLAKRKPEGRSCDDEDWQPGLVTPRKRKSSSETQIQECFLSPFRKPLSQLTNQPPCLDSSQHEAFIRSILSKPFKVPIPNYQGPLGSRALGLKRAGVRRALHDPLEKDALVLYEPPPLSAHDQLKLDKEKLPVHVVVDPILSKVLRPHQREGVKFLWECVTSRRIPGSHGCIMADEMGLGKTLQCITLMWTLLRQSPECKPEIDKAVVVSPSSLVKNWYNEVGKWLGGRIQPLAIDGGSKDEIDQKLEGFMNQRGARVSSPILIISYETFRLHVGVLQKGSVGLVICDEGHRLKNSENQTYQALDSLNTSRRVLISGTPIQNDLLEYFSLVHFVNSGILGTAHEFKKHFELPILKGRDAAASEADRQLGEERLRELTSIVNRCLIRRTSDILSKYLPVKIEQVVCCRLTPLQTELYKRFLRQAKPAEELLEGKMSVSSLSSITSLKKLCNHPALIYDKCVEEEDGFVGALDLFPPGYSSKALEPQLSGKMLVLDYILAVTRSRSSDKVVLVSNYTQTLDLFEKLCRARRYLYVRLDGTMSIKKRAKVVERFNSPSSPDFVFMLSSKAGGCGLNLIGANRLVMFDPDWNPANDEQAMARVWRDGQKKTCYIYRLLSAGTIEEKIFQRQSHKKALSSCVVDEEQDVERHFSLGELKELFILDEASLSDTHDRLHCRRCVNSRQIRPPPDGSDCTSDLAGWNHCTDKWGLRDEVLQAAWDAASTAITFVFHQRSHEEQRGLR

[5] = test system: CHO-K1; experiment: (§1) Counterscreen for antagonists of the orexin 1 receptor (OX1R; HCRTR1): Homogeneous time resolved fluorescence (HTRF)-based cell-based dose response assay to identify antagonists of the parental CHO-K1 cell line. [Related pubchem assays (depositor defined):AID434989, AID435008, AID463079, AID485270, AID492963, AID492964, AID492965, AID493232, AID504699, AID504701]; format: functional; settings: Cricetulus griseus
[6] = as §1, with “Fluorescence-based” for “Homogeneous time resolved fluorescence (HTRF)-based”, “cell-based high throughput” for “cell-based”, “CHO” for “CHO-K1”; format: functional
[7] = biological target: T2, Orexin/Hypocretin receptor type 1 (Homo sapiens, UniProt O43613); experiment: Homogeneous Time Resolved Fluorescence (HTRF)-based cell-based high throughput dose response assay for antagonists of the orexin 1 receptor (OX1R; HCRTR1). [Related pubchem assays (depositor defined):AID434989, AID435008, AID463079, AID485270, AID492963, AID492964, AID492965, AID493232, AID504717, AID504718]; format: functional
T2 sequence (O43613 whole entry): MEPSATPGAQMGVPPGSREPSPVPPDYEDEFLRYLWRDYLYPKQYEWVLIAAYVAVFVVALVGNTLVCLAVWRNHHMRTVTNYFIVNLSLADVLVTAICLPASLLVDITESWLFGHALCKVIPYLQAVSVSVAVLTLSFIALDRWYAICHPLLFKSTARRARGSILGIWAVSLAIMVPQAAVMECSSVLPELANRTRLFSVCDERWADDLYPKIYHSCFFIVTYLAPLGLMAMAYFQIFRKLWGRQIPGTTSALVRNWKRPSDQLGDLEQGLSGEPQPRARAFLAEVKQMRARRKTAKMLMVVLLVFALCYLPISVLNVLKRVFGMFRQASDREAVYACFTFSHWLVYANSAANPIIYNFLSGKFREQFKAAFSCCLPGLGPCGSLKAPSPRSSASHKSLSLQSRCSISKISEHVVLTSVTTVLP

[8] = biological target: T2, Orexin/Hypocretin receptor type 1; experiment: Fluorescence-based cell-based high throughput dose response assay for antagonists of the orexin 1 receptor (OX1R; HCRTR1). [Related pubchem assays (depositor defined):AID434989, AID435008, AID463079, AID485270, AID492963, AID492964, AID492965, AID493232, AID504717, AID504718]; format: functional
[9] = biological target: T3, Orexin receptor type 2 (Homo sapiens, UniProt O43614); experiment: Counterscreen assay for antagonists of the orexin 1 receptor (OX1R; HCRTR1): Fluorescence-based cell-based dose response assay for antagonists of the orexin 2 receptor (OX2R; HCRTR2), run by assay provider.; format: functional
T3 sequence (O43614 whole entry): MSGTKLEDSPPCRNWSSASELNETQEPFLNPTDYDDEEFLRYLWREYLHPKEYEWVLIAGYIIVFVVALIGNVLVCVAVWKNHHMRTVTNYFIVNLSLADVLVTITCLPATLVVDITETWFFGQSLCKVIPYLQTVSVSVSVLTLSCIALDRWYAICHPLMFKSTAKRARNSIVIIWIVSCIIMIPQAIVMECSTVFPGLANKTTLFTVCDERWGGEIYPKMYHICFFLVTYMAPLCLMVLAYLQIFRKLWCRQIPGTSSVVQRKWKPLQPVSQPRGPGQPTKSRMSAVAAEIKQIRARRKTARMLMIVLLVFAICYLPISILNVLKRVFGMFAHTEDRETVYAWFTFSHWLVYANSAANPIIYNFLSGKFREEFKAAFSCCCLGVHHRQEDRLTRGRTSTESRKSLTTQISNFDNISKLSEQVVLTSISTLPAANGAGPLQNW

[10] = biological target: T3, Orexin receptor type 2; experiment: Counterscreen assay for antagonists of the orexin 1 receptor (OX1R; HCRTR1): Homogeneous Time Resolved Fluorescence (HTRF)-based cell-based dose response assay for antagonists of the orexin 2 receptor (OX2R; HCRTR2), run by assay provider.; format: functional
[11] = test system: HEK293; experiment: inhibitors of LMP1-driven NF-kB reporter, dose response, cell-based, HEK293, luciferase, cherry-pick (AID 588343); format: functional; settings: Homo sapiens
[12] = Shn3 3'UTR reporter inhibitors, dose response, cell-based, Clone20 osteoblasts, firefly luciferase, cherry-picked (AID 624132); format: functional;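 also: firefly luciferase luminescence from reporter carrying the Shn3 3'UTR in osteoblasts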
[13] = HepG2 cell cytotoxicity, dose response, cytotoxicity control for Shn3 inhibitor project, CellTiter-Glo, cherry-picked (AID 624134); format: functional, cell-based
[14] = control 3'UTR Renilla luciferase suppression, dose response, counter-screen for Shn3 inhibitor project, cell-based, Clone20-Shn3RL, cherry-picked (AID 624133); format: functional
[15] = biological target: T4, Mitochondrial peptide methionine sulfoxide reductase (Bos taurus, UniProt P54149); format: functional;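 also: absorbance read-out, biochemical high-throughput dose-response screen for MsrA inhibitors, confirmatory; recombinant bovine MsrA coupled to E. coli TrxB with NADPH and selenocystamine; potency is for inhibitors of MsrA activity on DMSO substrate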
T4 sequence (P54149 whole entry): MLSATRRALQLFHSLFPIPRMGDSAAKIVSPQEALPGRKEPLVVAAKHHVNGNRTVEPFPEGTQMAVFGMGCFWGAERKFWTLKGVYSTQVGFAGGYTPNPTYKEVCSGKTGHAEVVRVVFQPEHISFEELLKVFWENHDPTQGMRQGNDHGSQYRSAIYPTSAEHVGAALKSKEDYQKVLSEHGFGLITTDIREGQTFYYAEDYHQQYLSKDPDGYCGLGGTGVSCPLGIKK

Chain of Ras and Rab interactor 1/Tyrosine-protein kinase ABL1 (P00519 whole entry): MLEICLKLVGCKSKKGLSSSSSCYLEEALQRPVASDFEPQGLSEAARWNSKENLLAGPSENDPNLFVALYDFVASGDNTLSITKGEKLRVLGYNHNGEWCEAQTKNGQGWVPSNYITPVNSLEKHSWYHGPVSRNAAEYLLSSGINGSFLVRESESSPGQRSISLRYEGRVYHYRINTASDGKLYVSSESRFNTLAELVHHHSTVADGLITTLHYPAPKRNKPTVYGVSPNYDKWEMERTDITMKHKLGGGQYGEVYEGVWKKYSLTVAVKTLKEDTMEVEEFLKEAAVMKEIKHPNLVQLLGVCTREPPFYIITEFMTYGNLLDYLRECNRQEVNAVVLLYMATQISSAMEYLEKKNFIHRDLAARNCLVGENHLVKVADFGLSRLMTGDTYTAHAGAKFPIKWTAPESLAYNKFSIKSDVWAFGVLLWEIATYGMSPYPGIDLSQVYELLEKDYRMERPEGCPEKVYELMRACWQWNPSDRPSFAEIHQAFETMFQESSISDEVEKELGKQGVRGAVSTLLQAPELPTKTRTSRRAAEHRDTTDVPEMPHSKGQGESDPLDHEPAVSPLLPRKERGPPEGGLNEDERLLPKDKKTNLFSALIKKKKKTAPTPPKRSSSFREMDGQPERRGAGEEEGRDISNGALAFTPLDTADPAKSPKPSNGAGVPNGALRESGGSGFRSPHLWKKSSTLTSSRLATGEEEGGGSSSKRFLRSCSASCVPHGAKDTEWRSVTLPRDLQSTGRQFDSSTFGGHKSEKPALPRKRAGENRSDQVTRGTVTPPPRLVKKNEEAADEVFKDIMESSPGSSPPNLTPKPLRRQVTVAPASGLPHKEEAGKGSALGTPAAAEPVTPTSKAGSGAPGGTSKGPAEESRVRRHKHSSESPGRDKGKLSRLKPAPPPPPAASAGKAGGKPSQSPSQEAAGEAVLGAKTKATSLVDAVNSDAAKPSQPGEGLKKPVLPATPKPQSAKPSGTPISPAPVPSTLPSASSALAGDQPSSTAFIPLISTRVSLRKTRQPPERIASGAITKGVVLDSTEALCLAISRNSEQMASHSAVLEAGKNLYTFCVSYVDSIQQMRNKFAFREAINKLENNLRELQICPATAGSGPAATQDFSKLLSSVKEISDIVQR
Chain of Ras and Rab interactor 1/Tyrosine-protein kinase ABL1 (Q13671 whole entry): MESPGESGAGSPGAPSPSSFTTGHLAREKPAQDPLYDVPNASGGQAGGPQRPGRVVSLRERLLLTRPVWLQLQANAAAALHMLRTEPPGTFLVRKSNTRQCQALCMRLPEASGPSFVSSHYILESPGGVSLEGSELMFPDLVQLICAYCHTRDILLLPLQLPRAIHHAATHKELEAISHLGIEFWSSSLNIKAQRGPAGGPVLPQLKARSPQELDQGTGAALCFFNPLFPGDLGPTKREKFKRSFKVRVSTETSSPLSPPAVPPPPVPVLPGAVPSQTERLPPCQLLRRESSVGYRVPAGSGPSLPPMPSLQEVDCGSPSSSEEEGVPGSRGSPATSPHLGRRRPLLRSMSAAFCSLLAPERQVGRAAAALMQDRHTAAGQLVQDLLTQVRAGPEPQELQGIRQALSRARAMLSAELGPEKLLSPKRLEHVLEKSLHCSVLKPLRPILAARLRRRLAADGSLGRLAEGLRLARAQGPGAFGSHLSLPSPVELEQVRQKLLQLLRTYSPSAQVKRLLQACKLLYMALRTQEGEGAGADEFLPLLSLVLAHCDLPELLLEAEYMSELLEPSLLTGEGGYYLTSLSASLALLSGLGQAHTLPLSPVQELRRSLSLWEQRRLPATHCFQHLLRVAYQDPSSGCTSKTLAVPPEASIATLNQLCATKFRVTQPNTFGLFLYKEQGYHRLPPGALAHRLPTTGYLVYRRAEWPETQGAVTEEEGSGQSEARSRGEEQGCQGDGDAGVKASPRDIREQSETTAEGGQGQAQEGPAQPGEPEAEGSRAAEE

OCCN1CCN(c2ncnc3c2sc2nc(N4CCOCC4)c4c(c23)CCC4)CC1
EC50 [1]: 0.241 µM (active) | EC50 [2]: > 60 µM (not active) | IC50 [3]: 24.2 µM (inactive) | AC50 [4]: 11.4 µM (active)

COc1ccccc1NC(=O)[C@@H]1CCCN1S(=O)(=O)c1ccc(Cl)cc1
IC50 [5]: > 66.2 µM (inactive) | IC50 [6]: > 49.7 µM (inactive) | IC50 [7]: 1.21 µM (active) | IC50 [8]: 13.2 µM (inactive) | IC50 [9]: 11 µM (inactive) | IC50 [10]: 6.28 µM (active)

CN(C(=O)c1ccc(NC(=O)Cc2cccc(NC(=O)C3CCN(C(=O)C4CCCCC4)CC3)c2)cc1)C1CC1
IC50 [3]: 18.9 µM (inactive)

Cn1ncc(Cl)c1C(=O)NC1CCCC1
AC50 [11]: > 350 µM (inactive)

Cn1cnc([N+](=O)[O-])c1S(=O)(=O)Oc1ccccc1
AC50 [12]: 3.83 µM (active) | AC50 [13]: 42.3 µM (active) | AC50 [14]: 24.1 µM (active) | IC50 [15]: 48 µM (inactive)
